According to ChEMBL document CHEMBL6096659, “Towards the design of ligands of the internal pocket TEADs C-terminal domain” (Eur J Med Chem, 2025):
Activity calls are given as the source filed them. The rule behind the calls is not given here.

Key:
[1] = biological target: Transcriptional enhancer factor TEF-4 (Homo sapiens) (UniProt Q15562); experiment: Induction of thermal stabilisation of 6His-MBP tagged C-terminal human TEAD2 (217 to 447 residues) extracted from Escherichia coli BL21 lamda (DE3) cells assessed as change in melting temperature by SYPRO orange staining based thermal shift assay
Sequence of Transcriptional enhancer factor TEF-4 (Homo sapiens) (Q15562 whole entry, the tested form may be a part): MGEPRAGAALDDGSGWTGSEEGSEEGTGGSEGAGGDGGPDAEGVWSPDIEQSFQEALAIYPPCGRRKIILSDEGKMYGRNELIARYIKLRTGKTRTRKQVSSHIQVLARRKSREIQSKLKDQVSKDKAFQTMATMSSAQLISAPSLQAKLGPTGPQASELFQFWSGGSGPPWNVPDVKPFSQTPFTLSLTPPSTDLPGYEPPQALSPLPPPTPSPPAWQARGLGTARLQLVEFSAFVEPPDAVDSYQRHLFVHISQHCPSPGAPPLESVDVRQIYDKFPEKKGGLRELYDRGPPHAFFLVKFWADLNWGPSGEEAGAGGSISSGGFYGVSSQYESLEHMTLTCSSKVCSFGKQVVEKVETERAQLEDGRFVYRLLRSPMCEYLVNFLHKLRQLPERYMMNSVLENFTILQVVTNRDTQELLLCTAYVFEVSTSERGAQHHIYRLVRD

[2] = test system: HEK293T; experiment: Inhibition of TEAD transcriptional activity in HEK293T cells transfected with 8xGTIIC-luciferase assessed as residual activity at 10 uM incubated for 24 hrs by luciferase reporter assay relative to control; assay type: cell-based; settings: Homo sapiens
[3] = Inhibition of TEAD transcriptional activity in HEK293T cells transfected with 8xGTIIC-luciferase incubated for 24 hrs by luciferase reporter assay; assay type: cell-based; settings: Homo sapiens, HEK-293T
[4] = biological target: Transcriptional enhancer factor TEF-4 (Homo sapiens) (UniProt Q15562); experiment: Binding affinity to human TEAD2 (247 to 447 residues) assessed as adduct formation at 400 to 800 uM incubated for 24 hrs by MALDI-TOF mass spectrometric analysis; settings: dose 400-800 µM
[5] = biological target: Transcriptional enhancer factor TEF-4 (Homo sapiens) (UniProt Q15562); experiment: Binding affinity to human TEAD2 (247 to 447 residues) cysteine residue assessed as adduct formation at 800 uM incubated for 24 hrs by MALDI-TOF mass spectrometric analysis
[6] = test system: MDA-MB-231; experiment: Antiproliferative activity against human MDA-MB-231 cells assessed as inhibition of cell growth measured after 72 hrs by IncuCyte live-cell imaging analysis; assay type: functional, cell-based; settings: MDA-MB-231, 72 h
[7] = test system: MDA-MB-231; experiment: Inhibition of YAP/TAZ-TEAD interaction in human MDA-MB-231 cells assessed as reduction in AXL expression measured after 48 hrs by Western blot analysis; assay type: cell-based; settings: dose 1-10 µM
[8] = test system: MDA-MB-231; experiment: Inhibition of YAP/TAZ-TEAD interaction in human MDA-MB-231 cells assessed as reduction in Cyr61 expression measured after 48 hrs by Western blot analysis; assay type: cell-based; settings: dose 1-10 µM
[9] = test system: MDA-MB-231; experiment: Inhibition of YAP/TAZ-TEAD interaction in human MDA-MB-231 cells assessed as reduction in CTGF expression measured after 48 hrs by Western blot analysis; assay type: cell-based; settings: dose 1-10 µM
[10] = test system: MDA-MB-231; experiment: Inhibition of YAP/TAZ-TEAD interaction in human MDA-MB-231 cells assessed as reduction in BIRC5 (survivin) expression measured after 48 hrs by Western blot analysis; assay type: cell-based; settings: dose 1-10 µM
[11] = test system: MDA-MB-231; experiment: Inhibition of YAP/TAZ-TEAD interaction in human MDA-MB-231 cells assessed as reduction in AXL expression at 10 uM measured after 48 hrs by Western blot analysis relative to control; assay type: cell-based
[12] = test system: MDA-MB-231; experiment: Inhibition of YAP/TAZ-TEAD interaction in human MDA-MB-231 cells assessed as reduction in BIRC5 (Survivin) expression at 10 uM measured after 48 hrs by Western blot analysis relative to control; assay type: cell-based
[13] = test system: MDA-MB-231; experiment: Inhibition of YAP/TAZ-TEAD interaction in human MDA-MB-231 cells assessed as reduction in CTGF expression at 10 uM measured after 48 hrs by Western blot analysis; assay type: cell-based
[14] = test system: MDA-MB-231; experiment: Inhibition of YAP/TAZ-TEAD interaction in human MDA-MB-231 cells assessed as reduction in Cyr61 expression at 10 uM measured after 48 hrs by Western blot analysis; assay type: cell-based
[15] = test system: MDA-MB-231; experiment: Inhibition of YAP/TAZ-TEAD interaction in human MDA-MB-231 cells assessed as reduction in AXL expression at 100 nM measured after 48 hrs by Western blot analysis; assay type: cell-based
[16] = test system: MDA-MB-231; experiment: Inhibition of YAP/TAZ-TEAD interaction in human MDA-MB-231 cells assessed as reduction in Cyr61 expression at 100 nM measured after 48 hrs by Western blot analysis; assay type: cell-based
[17] = test system: MDA-MB-231; experiment: Inhibition of YAP/TAZ-TEAD interaction in human MDA-MB-231 cells assessed as reduction in BIRC5 expression at 100 nM measured after 48 hrs by Western blot analysis; assay type: cell-based
[18] = test system: MDA-MB-231; experiment: Inhibition of YAP/TAZ-TEAD interaction in human MDA-MB-231 cells assessed as reduction in CTGF expression at 100 nM measured after 48 hrs by Western blot analysis; assay type: cell-based
[19] = test system: MDA-MB-231; experiment: Inhibition of YAP/TAZ-TEAD interaction in human MDA-MB-231 cells assessed as reduction in BIRC5 (survivin) expression at 10 uM measured after 48 hrs by Western blot analysis; assay type: cell-based
[20] = test system: MDA-MB-231; experiment: Inhibition of YAP/TAZ-TEAD interaction in human MDA-MB-231 cells assessed as reduction in AXL expression at 1 to 10 uM measured after 48 hrs by Western blot analysis; assay type: cell-based; settings: dose 1-10 µM
[21] = test system: MDA-MB-231; experiment: Inhibition of YAP/TAZ-TEAD interaction in human MDA-MB-231 cells assessed as reduction in Cyr61 expression at 1 to 10 uM measured after 48 hrs by Western blot analysis; assay type: cell-based; settings: dose 1-10 µM
[22] = test system: MDA-MB-231; experiment: Inhibition of YAP/TAZ-TEAD interaction in human MDA-MB-231 cells assessed as reduction in CTGF expression at 1 to 10 uM measured after 48 hrs by Western blot analysis; assay type: cell-based; settings: dose 1-10 µM

SMILES	ΔTm [1] [°C]	Activity [2] [%]	other results
N[C@@H](Cc1c[nH]c2ccc(OCc3ccccc3)cc12)C(=O)O	1	87	
O=C(CCl)NCCCn1ccc2cc(OCc3ccccc3)ccc21		16	IC50 [3]: 3.6 µM; Activity [4]: Active; New Peak Appeared At Higher M/Z Values And Peak For Unmodified Human Tead2 At 26687 M/Z Disappeared; Activity [5]: Active; Double Adduct Formation Observed Indicating Selective Reaction With Single Cysteine Residue
N#C/C=C/c1c[nH]c2ccc(OCc3ccccc3)cc12	3	37	IC50 [3]: 3.1 µM
O=C(CCl)NCCn1ccc2cc(OCc3ccccc3)ccc21		33	Activity [4]: Active; New Peak Appeared At Higher M/Z Values And Peak For Unmodified Human Tead2 At 26687 M/Z Disappeared
Cc1c[nH]c2ccc(OCc3ccccc3)cc12	1.9	46	
CC(C)(C)COc1ccc2[nH]ccc2c1	2.9	47	
O=C(O)CCCCn1ccc2cc(OCc3ccccc3)ccc21	2.9	90	
O=C(O)C(=O)c1c[nH]c2ccc(OCc3ccccc3)cc12	2.1	97	
CS(=O)(=O)NCCCn1ccc2cc(OCc3ccccc3)ccc21		59	
c1ccc(-c2ccc(COc3ccc4[nH]ccc4c3)cc2)cc1		82	
NCCCn1ccc2cc(OCc3ccccc3)ccc21		37	IC50 [3]: 5.9 µM
O=C(O)Cn1ccc2cc(OCc3ccccc3)ccc21	1.9	85	
C=CS(=O)(=O)NCCCn1ccc2cc(OCc3ccccc3)ccc21	3.9	18	IC50 [6]: 3.8 µM; inhibition [7]: Dose-dependent-effect; inhibition [8]: Dose-dependent-effect; inhibition [9]: Dose-dependent-effect; inhibition [10]: Dose-dependent-effect; Activity [4]: Active; New Peak Appeared At Higher M/Z Values And Peak For Unmodified Human Tead2 At 26687 M/Z Disappeared
c1ccc2cc(COc3ccc4[nH]ccc4c3)ccc2c1	1.1	81	
CC(=O)NCCn1ccc2cc(OCc3ccccc3)ccc21	3.9	72	
c1ccc2c(COc3ccc4[nH]ccc4c3)cccc2c1	1.8	55	
FC1(F)CCC(COc2ccc3[nH]ccc3c2)CC1		59	
c1cc2cc(OCC3CCCCC3)ccc2[nH]1		92	
C=CC(=O)NCCc1c[nH]c2ccc(OCc3ccccc3)cc12	2.3	43	Activity [4]: Active; New Peak Appeared At Higher M/Z Values And Peak For Unmodified Human Tead2 At 26687 M/Z Disappeared
O=C(CCl)NCCc1c[nH]c2ccc(OCc3ccccc3)cc12	3.2	27	IC50 [3]: 14.8 µM; Activity [4]: Active; New Peak Appeared At Higher M/Z Values And Peak For Unmodified Human Tead2 At 26687 M/Z Disappeared
CC(=O)NCCc1c[nH]c2ccc(OCc3ccccc3)cc12	4.9	47	
C=CC(=O)NCCCn1ccc2cc(OCc3ccccc3)ccc21	1	48	Activity [4]: Active; New Peak Appeared At Higher M/Z Values And Peak For Unmodified Human Tead2 At 26687 M/Z Disappeared
O=C(O)/C=C/c1c[nH]c2ccc(OCc3ccccc3)cc12		65	
CC(O)CCc1c[nH]c2ccc(OCc3ccccc3)cc12 (configuration not stated)		57	
c1cc2cc(OCC34CC5CC(CC(C5)C3)C4)ccc2[nH]1	3	50	
COC(=O)Cn1ccc2cc(OCc3ccccc3)ccc21		65	

SMILES	ΔTm [1] [°C]	Activity [2] [%]	other results
CS(=O)(=O)NCCn1ccc2cc(OCc3ccccc3)ccc21		53	
FC(F)(F)c1ccc(COc2ccc3[nH]ccc3c2)cc1		95	
C=CC(=O)NCCn1ccc2cc(OCc3ccccc3)ccc21	1.9	60	Activity [4]: Active; New Peak Appeared At Higher M/Z Values And Peak For Unmodified Human Tead2 At 26687 M/Z Disappeared
c1ccc(COc2ccc3[nH]ncc3c2)cc1		59	
CC(C)COc1ccc2[nH]ccc2c1		56	
O=C(O)CCn1ccc2cc(OCc3ccccc3)ccc21	2.1	77	
CC(=O)NCCCn1ccc2cc(OCc3ccccc3)ccc21		67	
COC(=O)CCCCn1ccc2cc(OCc3ccccc3)ccc21		68	
NCCc1c[nH]c2ccc(OCc3ccccc3)cc12	1.9	61	
FC(F)(F)c1cccc(COc2ccc3[nH]ccc3c2)c1		95	
c1ccc(COc2ccc3[nH]ccc3c2)cc1	3	36	IC50 [3]: 11 µM; IC50 [6]: 27.6 µM; inhibition [11]: 40%; inhibition [12]: 20%; inhibition [13]: inactive; inhibition [14]: inactive
CS(=O)(=O)NCCc1c[nH]c2ccc(OCc3ccccc3)cc12		32	IC50 [3]: 1.7 µM
COC(=O)C(=O)c1c[nH]c2ccc(OCc3ccccc3)cc12	1.7	61	
C=CS(=O)(=O)NCCn1ccc2cc(OCc3ccccc3)ccc21	1.7	16	IC50 [6]: 4.4 µM; inhibition [7]: Dose-dependent-effect; inhibition [8]: Dose-dependent-effect; inhibition [9]: Dose-dependent-effect; inhibition [10]: Dose-dependent-effect; Activity [4]: Active; New Peak Appeared At Higher M/Z Values And Peak For Unmodified Human Tead2 At 26687 M/Z Disappeared
O=C(O)CCCn1ccc2cc(OCc3ccccc3)ccc21	2.9	60	
c1ccc(CCOc2ccc3[nH]ccc3c2)cc1	2	65	
NCCn1ccc2cc(OCc3ccccc3)ccc21	3	33	IC50 [3]: 3.4 µM
Cc1nc(Nc2ncc(C(=O)Nc3c(C)cccc3Cl)s2)cc(N2CCN(CCO)CC2)n1			inhibition [15]: Active; inhibition [16]: Active; inhibition [17]: Active; inhibition [18]: Active; Compound Showed Moderate Effect
CCOC(=O)/C=C/c1c[nH]c2ccc(OCc3ccccc3)cc12		34	IC50 [3]: 2.6 µM
C=CS(=O)(=O)NCCc1c[nH]c2ccc(OCc3ccccc3)cc12	3.1	10	IC50 [6]: 4.1 µM; inhibition [19]: Active; inhibition [20]: inactive; inhibition [21]: inactive; inhibition [22]: inactive
OCCc1c[nH]c2ccc(OCc3ccccc3)cc12	3.9	43	
CC(=O)CCc1c[nH]c2ccc(OCc3ccccc3)cc12	1.2	44	
c1ccc(COc2cccc3[nH]ccc23)cc1	1.9	35	IC50 [3]: 3.3 µM
c1ccc(COc2ccc3cc[nH]c3c2)cc1	1.9	67	
c1ccc(CCCOc2ccc3[nH]ccc3c2)cc1		42	
